# Reference: PubChem BioAssay AID1259411 (Chemical Carcinogenesis Research Information System (CCRIS), 2018)
# Active and inactive are the calls of the source. The rule behind the calls is not given here.
# Test system: rodent carcinogenicity bioassays, tumor incidence
# Experiment: CCRIS carcinogenicity studies
# Excerpt: The CCRIS database contains chemical records with carcinogenicity, mutagenicity, tumor promotion, and tumor inhibition test results. It was developed by the National Cancer Institute (NCI). Data are derived from studies cited in primary journals, current awareness tools, NCI reports, and other sources. Test results have been reviewed by experts in carcinogenesis and mutagenesis.
# CCRIS provides historical information from the years 1985 - 2011. It is no longer updated.
# This is an archive assay for CCRIS carcinogenicity studies.
# [1] = Species: MOUSE, Strain/Sex: B6C3F1/MALE, Route: INTRAPERITONEAL, Dose: 0, 0.625 UMOL IN 35 µL DMSO ON D 1, 8, AND 15 AFTER BIRTH (STUDY DURATION: 8 MO), Tumor Site: Type of Lesion: LIVER: HEPATOCELLULAR ADENOMA
# [2] = Species: MOUSE, Strain/Sex: B6C3F1/MALE, Route: INTRAPERITONEAL, Dose: 0, 1.25 UMOL IN 35 µL DMSO ON D 1, 8, AND 15 AFTER BIRTH (STUDY DURATION: 8 MO), Tumor Site: Type of Lesion: LIVER: HEPATOCELLULAR ADENOMA
compound,measurement,setting,value
CCC(C)Br (stereo not given),carcinogen call,"Species: MOUSE, Route: INTRAPERITONEAL, Tumor Site: Type of Lesion: LUNG",active; positive
Cc1ccc([N+](=O)[O-])cc1N,carcinogen call,"Species: MOUSE, Strain/Sex: B6C3F1/FEMALE, Route: ORAL, Dose: 0, 0.12, 0.23% OF DIET, TWA, Dose: 0, 0.12, 0.23% OF DIET, TWA, Tumor Site: Type of Lesion: LIVER: HEPATOCELLULAR CARCINOMA, BLOOD VESSELS: HEMANGIOSARCOMA",active; positive
same,carcinogen call,"Species: MOUSE, Strain/Sex: B6C3F1/MALE, Route: ORAL, Dose: 0, 0.12, 0.23% OF DIET, TWA, Dose: 0, 0.12, 0.23% OF DIET, TWA, Tumor Site: Type of Lesion: LIVER: HEPATOCELLULAR CARCINOMA, BLOOD VESSELS: HEMANGIOSARCOMA OR HEMANGIOMA",active; positive
same,carcinogen call,"Species: RAT, Strain/Sex: F344/FEMALE, Route: ORAL, Dose: 0, 0.005, 0.01% OF DIET, TWA, Dose: 0, 0.005, 0.01% OF DIET, TWA",inactive; negative
same,carcinogen call,"Species: RAT, Strain/Sex: F344/MALE, Route: ORAL, Dose: 0, 0.005, 0.01% OF DIET, TWA, Dose: 0, 0.005, 0.01% OF DIET, TWA",inactive; negative
c1ccc2c(c1)ccc1cc3ccc4ccccc4c3cc12,carcinogen call,"Species: MOUSE, Strain/Sex: SWISS/FEMALE, Route: DERMAL, Dose: 0, 78 UG IN ACETONE (0.4%) 2/WK FOR 60 WK FOR A TOTAL DOSE OF 0, 9.4 MG (STUDY DURATION: 80 WK), Dose: 0, 78 UG IN ACETONE (0.4%) 2/WK FOR 60 WK FOR A TOTAL DOSE OF 0, 9.4 MG (STUDY DURATION: 80 WK), Tumor Site: Type of Lesion: SKIN: CARCINOMA",active; positive
C=CC(=O)OCCCCCC(C)C,carcinogen call,"Species: MOUSE, Strain/Sex: C3H/MALE, Route: DERMAL, Dose: 25 µL (5% V/V) IN ACETONE APPLIED TO BACK 3 D/WK FOR LIFE (STUDY DURATION: LIFE)",inactive; negative
Nc1ccc(-c2ccccc2)cc1,carcinogen call,"Species: DOG, Route: ORAL, Tumor Site: Type of Lesion: URINARY BLADDER",active; positive
same,carcinogen call,"Species: HUMAN, Route: ORAL, INHALATION, DERMAL, Tumor Site: Type of Lesion: URINARY BLADDER",active; positive
same,carcinogen call,"Species: MOUSE, Route: ORAL, Tumor Site: Type of Lesion: URINARY BLADDER, LIVER",active; positive
same,carcinogen call,"Species: MOUSE, Route: SUBCUTANEOUS, Tumor Site: Type of Lesion: LIVER",active; positive
same,carcinogen call,[1],active; positive
same,carcinogen call,"Species: MOUSE, Strain/Sex: B6C3F1/MALE, Route: INTRAPERITONEAL, Dose: 0, 0.625 UMOL IN 35 µL DMSO ON D 1, 8, AND 15 AFTER BIRTH (STUDY DURATION: 12 MO), Tumor Site: Type of Lesion: LIVER: HEPATOCELLULAR ADENOMA, HEPATOCELLULAR CARCINOMA",active; positive
same,carcinogen call,[2],active; positive
same,carcinogen call,"Species: MOUSE, Strain/Sex: B6C3F1/MALE, Route: INTRAPERITONEAL, Dose: 0, 1.25 UMOL IN 35 µL DMSO ON D 1, 8, AND 15 AFTER BIRTH (STUDY DURATION: 12 MO), Tumor Site: Type of Lesion: LIVER: HEPATOCELLULAR ADENOMA, HEPATOCELLULAR CARCINOMA",active; positive
same,carcinogen call,"Species: MOUSE, Strain/Sex: BALB/CSTCRLFC3HF/NCTR/FEMALE, Route: ORAL, Dose: 0, 7, 19, 38, 75, 150, 300 PPM IN DRINKING WATER FOR 96 WK (STUDY DURATION: 96 WK), Dose: 0, 7, 19, 38, 75, 150, 300 PPM IN DRINKING WATER FOR 96 WK (STUDY DURATION: 96 WK), Tumor Site: Type of Lesion: BLOOD VESSELS: ANGIOSARCOMA, LIVER: HEPATOCELLULAR CARCINOMA",active; positive
same,carcinogen call,"Species: MOUSE, Strain/Sex: BALB/CSTCRLFC3HF/NCTR/MALE, Route: ORAL, Dose: 0, 7, 14, 28, 55, 110, 220 PPM IN DRINKING WATER FOR 96 WK (STUDY DURATION: 96 WK), Dose: 0, 7, 14, 28, 55, 110, 220 PPM IN DRINKING WATER FOR 96 WK (STUDY DURATION: 96 WK), Tumor Site: Type of Lesion: BLOOD VESSELS: ANGIOSARCOMA, BLADDER: CARCINOMA",active; positive
same,carcinogen call,"Species: RABBIT, Route: ORAL, Tumor Site: Type of Lesion: URINARY BLADDER",active; positive
same,carcinogen call,"Species: RAT, Route: SUBCUTANEOUS, Tumor Site: Type of Lesion: MAMMARY GLAND, INTESTINES",active; positive
Cc1cccn2c1nc1ccc(N)nc12,carcinogen call,[1],active; positive
same,carcinogen call,"Species: MOUSE, Strain/Sex: B6C3F1/MALE, Route: INTRAPERITONEAL, Dose: 0, 0.625 UMOL IN 35 µL DMSO ON D 1, 8, AND 15 AFTER BIRTH (STUDY DURATION: 12 MO), Tumor Site: Type of Lesion: LIVER: HEPATOCELLULAR ADENOMA",active; positive
same,carcinogen call,[2],active; positive
same,carcinogen call,"Species: MOUSE, Strain/Sex: B6C3F1/MALE, Route: INTRAPERITONEAL, Dose: 0, 1.25 UMOL IN 35 µL DMSO ON D 1, 8, AND 15 AFTER BIRTH (STUDY DURATION: 12 MO), Tumor Site: Type of Lesion: LIVER: HEPATOCELLULAR ADENOMA",active; positive
same,carcinogen call,"Species: MOUSE, Strain/Sex: CDF1/FEMALE, Route: ORAL, Dose: 0, 0.05% IN DIET FOR UP TO 685 D (STUDY DURATION: 685 D), Tumor Site: Type of Lesion: LIVER: HEPATOCELLULAR ADENOMA OR CARCINOMA, BLOOD VESSELS: HEMANGIOENDOTHELIOMA OR HEMANGIOENDOTHELIAL SARCOMA",active; positive
same,carcinogen call,"Species: MOUSE, Strain/Sex: CDF1/MALE, Route: ORAL, Dose: 0, 0.05% IN DIET FOR 12 MO (STUDY DURATION: 12 MO), Tumor Site: Type of Lesion: BROWN ADIPOSE TISSUE: HEMANGIOENDOTHELIAL SARCOMA, LIVER: HEPATOCELLULAR ADENOMA OR CARCINOMA, LUNG: PULMONARY ADENOMA O, Tumor Site: Type of Lesion: BROWN ADIPOSE TISSUE: HEMANGIOENDOTHELIAL SARCOMA, LIVER: HEPATOCELLULAR ADENOMA OR CARCINOMA, LUNG: PULMONARY ADENOMA O",active; positive
same,carcinogen call,"Species: MOUSE, Strain/Sex: CDF1/MALE, Route: ORAL, Dose: 0, 0.05% IN DIET FOR UP TO 685 D (STUDY DURATION: 685 D), Tumor Site: Type of Lesion: BLOOD VESSELS: HEMANGIOENDOTHELIOMA OR HEMANGIOENDOTHELIAL SARCOMA",active; positive
same,carcinogen call,"Species: RAT, Strain/Sex: F344/FEMALE, Route: ORAL, Dose: 0, 500 PPM IN DIET (AV DAILY DOSE: 4.3 MG) FOR 24 MO (STUDY DURATION: 104 WK), Tumor Site: Type of Lesion: LIVER: HEPATOCELLULAR CARCINOMA OR ANAPLASTIC HEPATOMA, SMALL INTESTINE: ADENOMA OR ADENOCARCINOMA OR MUCINOUS CARCINOMA",active; positive
same,carcinogen call,"Species: RAT, Strain/Sex: F344/MALE, Route: ORAL, Dose: 0, 500 PPM IN DIET (AV DAILY DOSE: 7.4 MG) FOR 24 MO (STUDY DURATION: 104 WK), Tumor Site: Type of Lesion: LIVER: HEPATOCELLULAR CARCINOMA OR ANAPLASTIC HEPATOMA, SMALL INTESTINE: ADENOMA OR ADENOCARCINOMA OR MUCINOUS CARCINOMA",active; positive
Cc1c2ccccc2c(C)c2c3c(ccc12)[C@H](O)[C@@H](O)C=C3,carcinogen call,"Species: RAT, Strain/Sex: SPRAGUE-DAWLEY/FEMALE (8/GROUP), Route: SUBCUTANEOUS, Dose: 0.1 UMOL 3X A WK FOR 20 DOSES (STUDY DURATION: 38 WK), Tumor Site: Type of Lesion: MAMMARY: ADENOCARCINOMA",active; positive (100%); no tumors at injection site
same,carcinogen call,"Species: RAT, Strain/Sex: SPRAGUE-DAWLEY/FEMALE (8/GROUP), Route: SUBCUTANEOUS, Dose: 0.2 UMOL 3X A WK FOR 20 DOSES (STUDY DURATION: 30 WK), Tumor Site: Type of Lesion: MAMMARY: ADENOCARCINOMA",active; positive (100%); no tumors at injection site
